Data as given in PubChem BioAssay AID2060892 (Molecular Pharmacology Branch, DTP, NCI, 2025).

System: HOP-62 complex spheroids with HUVEC/MSC, viability
Assay: Anticancer human tumor HOP-62 cell line growth inhibition [RAS];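 further: spheroids exposed to agents for seven days before readout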;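 on viability, T/C: 100% = DMSO vehicle control viability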
Details: for IC50: curve of first compound; for viability, T/C: stronger effect = lower value
Text: RAS pathway inhibitors in Combinations in Complex Spheroids
A high-throughput screen of multi-cell type tumor spheroids was designed to identify active combinations of RAS pathway inhibitors and targeted small molecules. Complex spheroids include a stromal component modeled by human endothelial cells (HUVEC) and fibroblasts modeled by human mesenchymal stem cells (MSCs). The concentration ranges selected for each drug and investigational agent were based upon clinically achievable concentrations if the clinical Cmax of the agent was known.
Compounds. The drugs and investigational agents: abemaciclib (NSC768073), cobimetinib (NSC768068), divarasib (GDC6063, NSC841802), docetaxel (NSC628503), GDC-1971 (RLY-1971, NSC841576), gemcitabine (NSC613327), inavolisib (NSC800729), ipatasertib (NSC767898), KB-0742 (NSC834161), MRTX-1133 (NSC836407), osimertinib (NSC779217), RMC-4630 (NSC839698), RMC-6236 (NSC851965), RMC-6291 (NSC852671), Ro-3306 (NSC812927), sapanisertib (NSC764658), SN-38 (NSC673596), staurosporine (NSC755774), SY5609 (NSC837396), and tovorafenib (DAY101, NSC766906), were obtained from the National Cancer Institute (NCI) Developmental Therapeutics Program Chemical Repository. The FDA-approved anticancer drug set is available from the NCI Developmental Therapeutics Program. […] The stock solutions were prepared in dimethyl sulfoxide (DMSO, Sigma-Aldrich, St. Louis, MO, cat. D2650) at 800-fold the tested concentration and stored at -70 degrees C prior to their use. All drugs and investigational agents were tested over a range starting from a high concentration at or near the clinical Cmax and decreasing in half-log increments. If the clinical Cmax for an agent had not been determined, the highest concentration tested was 10 microM.
Cell Culture. All cells were maintained in an incubator at 37 degrees C and 5% CO2 with 95% humidity. The PDC lines were cultured according to standard operating procedures established by the NCI PDMR. All PDCs were thawed and cultured in Matrigel-coated flasks prepared with a working solution of 1X Ham's F-12 nutrient mix, without supplementation (Invitrogen, Waltham, MA, cat. 11765054), 100 U/mL penicillin-streptomycin (Invitrogen, cat. 15140122), and 2.5% Matrigel (Corning Inc., Corning, NY, cat. 354248) for the first three passages. The 362531-283-R-J2-PDC and 782815-120-R-J1-PDC lines were cultured in 6C/Colon 1B media, which includes advanced DMEM/F-12 (Thermo Fisher Scientific, cat. 12634028), 10 mM HEPES (Thermo Fisher Scientific, cat. 15630080), 1X GlutaMAX supplement (Thermo Fisher Scientific, cat. 35050061), 0.1 mg/mL primocin (InvivoGen, San Diego, CA, cat. ant-pm-2), 10% defined fetal bovine serum, heat inactivated (HyClone Laboratories Inc., Logan, UT, cat. SH30070.03HI), 50% L-WRN conditioned media (ATCC, cat. CRL-3276), 1.25 mM N-Acetyl-L-cysteine (Sigma-Aldrich, cat. A9165), 10 mM nicotinamide (Sigma-Aldrich, cat. N0636), 1X B-27 supplement (Thermo Fisher Scientific, cat. 17504044), 1X N-2 supplement (Thermo Fisher Scientific, cat. 17502048), 50 ng/mL human EGF (Thermo Fisher Scientific, cat. PHG0311), and 10 microM Y-27632 dihydrochloride (Tocris Bioscience, cat. 1254). The K12877-001-R-J1-PDC line was cultured in 6I media, which includes all 6C/Colon 1B media plus 10 ng/mL human FGF-10 (PeproTech, cat. 100-26), 1 ng/mL human FGF-2 (PeproTech, cat. 100-18B), 1 µM prostaglandin E2 (Tocris Bioscience, cat. 2296), […] hydrocortisone (Sigma-Aldrich, cat. H4001), and […] bovine insulin (Sigma-Aldrich, cat. I6634). The K86415-001-R-J1-PDC line was cultured in 6D media, which includes all 6C/Colon 1B media components minus the L-WRN conditioned media. The 485176-168-R4-J1-PDC was cultured in PANC media, which includes all 6C/Colon 1B media plus 100 ng/mL human FGF-10 (PeproTech, cat. 100-26), 500 nM SB-431542 (Selleckchem, cat. S1067), and 10 nM gastrin (Tocris Bioscience, cat. 3006). […]

For `CC1(O)CCCC1n1c(=O)c(C(F)F)cc2cnc(NC3CCN(S(C)(=O)=O)CC3)nc21` (configuration not stated) + CCn1c(-c2cccnc2C(C)OC)c2c3cc(ccc31)N1CCOC(CC(NC(=O)C(C(C)C)N(C)C(=O)C3(F)CCN(C(=O)C#CC(C)(C)N(C)C)CC3)C(=O)N3CCCC(N3)C(=O)OCC(C)(C)C2)C1, the IC50 (second compound 0.000949 µM) was 4840 nM, the IC50 (second compound 0.003 µM) was 4470 nM and the IC50 (second compound 0.00949 µM) was 3400 nM. For the same compound, the IC50 (second compound 0.03 µM) was 1170 nM, the IC50 (second compound 0.0949 µM) was 1630 nM and the IC50 (second compound 0.3 µM) was 777 nM. The viability, T/C (second compound 0.000949 µM, first compound 0.0316 µM) was 107%, the viability, T/C (second compound 0.000949 µM, first compound 0.1 µM) was 87.9% and the viability, T/C (second compound 0.000949 µM, first compound 0.316 µM) was 58%. The viability, T/C (second compound 0.000949 µM, first compound 1 µM) was 86.6%, the viability, T/C (second compound 0.000949 µM, first compound 3.16 µM) was 77.8% and the viability, T/C (second compound 0.000949 µM, first compound 10 µM) was 2.45%. It also gave a viability, T/C (second compound 0.003 µM, first compound 0.0316 µM) of 94.1%, a viability, T/C (second compound 0.003 µM, first compound 0.1 µM) of 65.2% and a viability, T/C (second compound 0.003 µM, first compound 0.316 µM) of 54.5%. For the same compound, the viability, T/C (second compound 0.003 µM, first compound 1 µM) was 67.6%, the viability, T/C (second compound 0.003 µM, first compound 3.16 µM) was 70.9% and the viability, T/C (second compound 0.003 µM, first compound 10 µM) was 2.8%. The viability, T/C (second compound 0.00949 µM, first compound 0.0316 µM) was 83%, the viability, T/C (second compound 0.00949 µM, first compound 0.1 µM) was 59.1% and the viability, T/C (second compound 0.00949 µM, first compound 0.316 µM) was 61%. For the same compound, the viability, T/C (second compound 0.00949 µM, first compound 1 µM) was 60%, the viability, T/C (second compound 0.00949 µM, first compound 3.16 µM) was 55.9% and the viability, T/C (second compound 0.00949 µM, first compound 10 µM) was 2.82%. For the same compound, the viability, T/C (second compound 0.03 µM, first compound 0.0316 µM) was 89.5%, the viability, T/C (second compound 0.03 µM, first compound 0.1 µM) was 80.2% and the viability, T/C (second compound 0.03 µM, first compound 0.316 µM) was 57.5%. For the same compound, the viability, T/C (second compound 0.03 µM, first compound 1 µM) was 60.5%, the viability, T/C (second compound 0.03 µM, first compound 3.16 µM) was 33% and the viability, T/C (second compound 0.03 µM, first compound 10 µM) was 2.88%. It also gave a viability, T/C (second compound 0.0949 µM, first compound 0.0316 µM) of 80.6%, a viability, T/C (second compound 0.0949 µM, first compound 0.1 µM) of 67.1% and a viability, T/C (second compound 0.0949 µM, first compound 0.316 µM) of 56.8%. For the same compound, the viability, T/C (second compound 0.0949 µM, first compound 1 µM) was 59.7%, the viability, T/C (second compound 0.0949 µM, first compound 3.16 µM) was 43.4% and the viability, T/C (second compound 0.0949 µM, first compound 10 µM) was 2.21%. It also gave a viability, T/C (second compound 0.3 µM, first compound 0.0316 µM) of 71.7%, a viability, T/C (second compound 0.3 µM, first compound 0.1 µM) of 63.1% and a viability, T/C (second compound 0.3 µM, first compound 0.316 µM) of 56.5%. The viability, T/C (second compound 0.3 µM, first compound 1 µM) was 51.9%, the viability, T/C (second compound 0.3 µM, first compound 3.16 µM) was 21.2% and the viability, T/C (second compound 0.3 µM, first compound 10 µM) was 2.92%.
